As a reminder, the IC50 is the midpoint of a concentration-inhibition curve. A higher IC50 goes with lower potency.

Molecules are shown by their SMILES.

The assay deals with Leukotriene B4 receptor 1 (Homo sapiens, UniProt Q15722). As to the kind of experiment: Inhibition of [3H]Leukotriene B4 binding to human PMN.
Sequence of Leukotriene B4 receptor 1 (Q15722 whole entry): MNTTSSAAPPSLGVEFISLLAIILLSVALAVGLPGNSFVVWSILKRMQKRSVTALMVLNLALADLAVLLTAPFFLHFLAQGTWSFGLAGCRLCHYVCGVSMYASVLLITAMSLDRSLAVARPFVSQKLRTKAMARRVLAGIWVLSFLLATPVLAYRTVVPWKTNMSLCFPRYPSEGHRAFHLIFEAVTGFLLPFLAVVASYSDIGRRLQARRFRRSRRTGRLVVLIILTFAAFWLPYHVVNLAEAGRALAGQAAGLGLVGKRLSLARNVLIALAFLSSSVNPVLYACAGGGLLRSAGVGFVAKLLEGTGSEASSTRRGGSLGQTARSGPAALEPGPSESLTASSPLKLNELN
For the compound `CCc1cc(-c2cc[nH]n2)c(O)cc1OCCCCCOc1ccc(CC(=O)O)cc1`, the IC50 was 55 nM.

Compound `O=C(O)CCc1cccc(OCCCOc2ccc(-c3cc[nH]n3)cc2)c1` showed an IC50 above 1000 nM.

For `CCc1cc(-c2cc[nH]n2)c(O)cc1OCCCOc1ccccc1CC(=O)O`, the IC50 is 12 nM.

For `CCc1cc(-c2ccn(C)n2)c(O)cc1OCCCCCC(C)(C)c1nnn[nH]1`, the half-inhibitory concentration (IC50) stood at 9.3 nM.

Compound `CCc1cc(-c2cc[nH]n2)c(O)cc1OCCCOc1ccc(CCC(=O)O)cc1` displayed a concentration for half-maximal inhibition (IC50) of 87 nM.

`CCCc1ccc(CCC(=O)O)cc1OCCCOc1cc(O)c(-c2cc[nH]n2)cc1CC` came in with an IC50 of 738 nM.

As to `CCc1cc(-c2cc[nH]n2)c(O)cc1OCCCOc1cccc(CC(=O)O)c1`, the IC50 was found to be 11 nM.

`CCCc1c(OCCCOc2cc(O)c(C(=O)/C=C/N(C)C)cc2CC)ccc2c1OC(C(=O)O)CC2` (stereo not given) returned an IC50 of 319 nM.

For the compound `CCc1cc(-c2ccnn2C)c(O)cc1OCCCCCC(C)(C)c1nnn[nH]1`, the half-maximal inhibitory concentration (IC50) is 107 nM.

With `CCCc1c(CCC(=O)O)cccc1OCCCOc1cc(O)c(-c2cc[nH]n2)cc1CC`, the IC50 was found to be 834 nM.

On to `CCc1cc(-c2cc[nH]n2)c(O)cc1OCCCOc1cccc(CCC(=O)O)c1`, for which the IC50 was 5.7 nM.

`CCCc1c(OCCCOc2cc(O)c(-c3cc[nH]n3)cc2CC)ccc2c1OC(C(=O)O)CC2` (stereo not given) returned a half-maximal inhibitory concentration (IC50) of 4.5 nM.

In turn, `CCc1cc(-c2cc[nH]n2)c(O)cc1OCCCCCOc1ccc(C(=O)O)cc1` returned a half-inhibitory concentration (IC50) of 82 nM.

Take `CCc1cc(-c2cc[nH]n2)c(O)cc1OCCCCCOc1ccc(CCC(=O)O)cc1`: the IC50 came to 28 nM.

Compound `CCc1cc(-c2ccn[nH]2)c(O)cc1OCCCOc1ccc(CC(=O)O)cc1` returned a half-inhibitory concentration (IC50) of 54 nM.

The values are drawn from ChEMBL document CHEMBL1127596, “Leukotriene B4 (LTB4) receptor antagonists: a series of (hydroxyphenyl)pyrazoles” (J Med Chem, 1994).
